These are literature values, as cited in patent publication US20210268271A1, “SYSTEMS AND METHODS FOR VISCERAL NEUROMODULATION” (priority 2018, published 2021).

SMILES strings stand for the structures.

The test system of data set [1] is TRPV1 expressing cardiac nerve endings. Particulars: in vivo.

For `C[C@H](CCCC(C)(C)O)[C@H]1CC[C@H]2[C@@H]3CC=C4C[C@@H](O)CC[C@]4(C)[C@H]3CC[C@]12C` [25-OH-cholesterol], in the data set with sympathetic ganglia, the “relative potency among cholesterol oxides” value is recorded as “most potent”.
In the case of `C=C(C)[C@]12C[C@@H](C)[C@@]34O[C@](Cc5ccccc5)(O[C@@H]1[C@@H]3C=C(COC(=O)Cc1ccc(O)c(OC)c1)C[C@]1(O)C(=O)C(C)=C[C@@H]41)O2` [RTX, resiniferatoxin], in data set [1], the “duration of complete ablation of TRPV1 expressing cardiac nerve endings” value is “over 10 weeks”.
Regarding `CCCCN1CCCCC1C(=O)Nc1c(C)cccc1C` (stereo not shown) [bupivacaine], the duration of block entry in the data set with deep cardiac plexus is “approximately 2 hours”.
With `CCN(CC)CC(=O)Nc1c(C)cccc1C` [lidocaine], the duration of block entry in the data set with deep cardiac plexus is given as “approximately 2 hours”.
